According to patent US11905553B2, “Method for nucleic acid amplification” (ST. JUDE CHILDREN'S RESEARCH HOSPITAL, INC., priority 2018, dated 2024):
“Also recorded” adds a separate entry of the source.

Experiments:
mice = conditions: limited sequencing of target genes; cited from earlier work
[1] = system: Umbilical cord blood cells that express the stem/progenitor marker CD34; experiment: Direct measurement of environmental mutagenicity (DMEM): exposed single cells, PTA and single-cell sequencing; assay type: cell-based, human; conditions: for enrichment of variants in DNase I hypersensitive (DH) sites: ENU-exposed CD34+ cells vs Roadmap Epigenomics DH sites (FIG. 12D, 12E)
Excerpt: PTA was used to conduct a novel mutagenicity assay that provides a framework for performing high-resolution, genome wide human toxicogenomics studies. Previous studies such as the Ames test, relies on bacterial genetics to make measurements that are assumed to be representative of human cells while only providing limited information on the mutation number and patterns induced in each exposed cell. To overcome these limitations, a human mutagenesis system “direct measurement of environmental mutagenicity (DMEM)” was developed, wherein single human cells was exposed to an environmental compound, isolated as single cells, and subjected to single-cell sequencing to identify the new mutations induced in each cell.
Umbilical cord blood cells that express the stem/progenitor marker CD34 were exposed to increasing concentrations of the direct mutagen N-ethyl-N-nitrosourea (ENU).
ENU (CAS 759-73-9) and D-mannitol (CAS 69-65-8) were put into solution at their maximal solubility. Fresh anticoagulant-treated umbilical cord blood (CB) was obtained from St. Louis Cord Blood Bank. CB was diluted 1:2 with PBS and mononuclear cells (MNCs) were isolated by density gradient centrifugation on Ficoll-Paque Plus according to manufacturer's instructions. CB MNCs expressing CD34 were then immunomagnetically selected using the human CD34 microbead kit and magnetic cell sorting (MACS) system as per the manufacturer. Cell count and viability were assessed using the Luna FL cell counter. CB CD34+ cells were seeded at a density of 2.5×10^4 cells/mL in StemSpan SFEM supplemented with 1×CD34+ Expansion supplement, 100 units/mL of penicillin, and 100 ug/mL of streptomycin where they expanded for 96 hours before proceeding to mutagen exposure.
Expanded cord blood CD34+ cells were cultured in StemSpan SFEM supplemented with 1×CD34+ Expansion Supplement, 100 units/mL of penicillin, and 100 ug/mL of streptomycin. The cells were exposed to ENU at concentrations of 8.54, 85.4, and 854 uM, D-mannitol at 1152.8, and 11528 uM, or 0.9% sodium chloride (vehicle control) for 40 hours. Single-cell suspensions from drug-treated cells and vehicle control samples were harvested and stained for viability as described above. Single cell sorts were carried out as described above. PTA was performed and libraries were prepared using a simplified and improved protocol as per the general methods of the methods described herein, and Example 2.
Data acquired from cells in the DMEM experiments were trimmed using Trimmomatic, aligned to GRCh38 using BWA, and further processed using GATK 4.0.1 best practices without deviation from the recommended parameters. Genotyping was performed using HaplotypeCaller where joint genotypes were again filtered using standard parameters. […] The trinucleotide context of each SNV was determined by extracting the surrounding bases from the reference genome using bedtools. Mutation counts and context were visualized using ggplot2 and heatmap2 in R.
To determine whether mutations were enriched in DNase I hypersensitivity sites (DHS) in CD34+ cells, the proportion of SNVs in each sample that overlap with DHS sites from 10 CD34+ primary cell datasets produced by the Roadmap Epigenomics Project were calculated. DHS sites were extended by 2 nucleosomes, or 340 bases in either direction. Each DHS dataset was paired with a single cell sample where we determined the proportion of the human genome with at least 10× coverage in that cell which overlapped with a DHS, which was compared to the proportion of SNVs that were found within the covered DHS sites.

[2] = system: leukemia cells; clone harboring an activating KRAS mutation; experiment: Leukemia cells in culture exposed to increasing concentrations of standard ALL chemotherapy drugs, bulk sequencing of clones; assay type: cell-based, human; conditions: for sensitivity of the clone harboring an activating KRAS mutation: pediatric ALL sample in culture, bulk sequencing (FIG. 7)
Excerpt: Single-cell exome sequencing of individual leukemia cells harboring an ETV6-RUNX1 translocation has been performed, measuring approximately 200 coding mutations per cell, only 25 of which have been present in enough cells to be detected with standard bulk sequencing in that patient. The mutation load per cell has then been incorporated with other known features of this type of leukemia, such as the replication-associated mutation rate (1 coding mutation/300 cell divisions), the time from initiation to diagnosis (4.2 years), and the population size at the time of diagnosis (100 billion cells) to create an in silico simulation of the development of the disease. It has been unexpectedly discovered that even in what has been thought to be a genetically simple cancer such as pediatric ALL, there are an estimated 330 million clones with distinct coding mutation profiles at the time of diagnosis in that patient. […] Accordingly, methods are provided for enhancing the sensitivity of detection so that clones that make up at least 0.01% (1:10,000) of the cells (box B) can be detected, as this is the stratum in which most resistant disease that causes relapse is hypothesized to reside.
Given such a massive population genetic diversity, it has been hypothesized that there are clones that are more resistant to treatment within a given patient. To test that hypothesis, the sample is placed in culture and the leukemia cells are exposed to increasing concentrations of standard ALL chemotherapy drugs. […] This approach also employed bulk sequencing of the treated samples. The use of single-cell DNA sequencing in some instances allows a determination of the diversity and clonotypes of the expanding populations.

## CCN(N=O)C(N)=O [ENU, N-ethyl-N-nitrosourea]
mice
  preference of base changes: preference for T to A (A to T), T to C (A to G), and C to T (G to A) changes
[1]; ENU 8.54, 85.4 and 854 uM, 40 hours, cord blood CD34+ cells (FIG. 12A)
  mutation number of each cell: dose-dependent increase in mutation number of each cell
[1]; ENU-exposed CD34+ cells (FIG. 12B)
  type of base changes induced: the most common mutations are T to A (A to T), T to C (A to G), and C to T (G to A); also recorded: C to G (G to C) transversion appears to be rare
[1]; ENU-exposed CD34+ cells (FIG. 12C)
  trinucleotide context of the SNVs: cytosine mutagenesis appears to be rare when cytosine is followed by guanine; also recorded: most thymine variants occur where adenine is present before thymine
[1]; ENU-exposed CD34+ cells (FIG. 12F)
  genomic feature annotation of the variants relative to the genome: not significantly different; also recorded: No specific enrichment was seen in specific annotations
[1]
  enrichment of variants in DNase I hypersensitive (DH) sites: no enrichment of cytosine variants in DNase I hypersensitivity sites was observed; also recorded: No significant enrichment in variant locations at DH sites was identified
[1]; listed as N-ethyl-N-nitrosourea
  enrichment of variants in DNase I hypersensitive (DH) sites: No significant enrichment of cytosine variants was observed

## COc1cccc2c1C(=O)c1c(O)c3c(c(O)c1C2=O)C[C@@](O)(C(C)=O)C[C@@H]3O[C@H]1C[C@H](N)[C@H](O)[C@H](C)O1 [daunorubicin]
[2]
  sensitivity of the clone harboring an activating KRAS mutation: more sensitive; also recorded: killed

## C[C@]12C=CC(=O)C=C1CC[C@@H]1[C@@H]2[C@@H](O)C[C@@]2(C)[C@H]1CC[C@]2(O)C(=O)CO [prednisolone]
[2]
  sensitivity of the clone harboring an activating KRAS mutation: more sensitive; also recorded: killed

## asparaginase
[2]; lowest dose of asparaginase, pediatric ALL sample in culture (FIG. 7)
  behaviour of the clone harboring an activating KRAS mutation: continued to expand
